Results as given in US20260028390A1, “ALPHA1-ANTITRYPSIN FOR USE IN THE TREATMENT OF DISEASES OR DISORDERS OF THE NERVOUS SYSTEM SUCH AS CHRONIC INFLAMMATORY DEMYELINATING POLYNEUROPATHY” (Ageronix SA, priority 2022, published 2026).

Tested on: HMC3-MHCII^Luc cells
Assay: RNAseq differential gene expression / GSEA in AAT-treated resting and IFNγ-activated microglia
Assay type: cell-based, human
Method: • A) Human microglial HMC3-MHCII^Luc cells were plated at day 0, presented IFNγ at day 1 until day 2 and measurement of the luciferase activity and cell viability were done at day 4. • B) AATs were applied from day 0 to day 4 on HMC3-MHCII^Luc cells. Activation was measured by the activity of MHCII-driven luciferase and represented as percentage of IFNγ control for all conditions. All conditions were performed in triplicates, error bars represent standard deviation. • C) Bulk RNA extraction was performed on the same HMC3-MHCII^Luc cultures. Quality control (QC) were applied to RNA before sequencing. QC of the sequencing was done prior to mapping on the human genome. Mapped reads were counted, and differential gene expression was measured between the conditions (see Table 1-10). (FIGS. 3A, 3B and 3C)
RNAseq data from plasma-derived and recombinant AATs were pooled, normalized and analyzed through Gene Set Enrichment Analysis (GSEA) (https://www.gsea-msigdb.org/gsea/index.jsp; Subramanian, A., et al. Proc. Natl. Acad. Sci. USA, 102 (43): 15545-15550, 2005.). […] Importantly, both the IFNγ and inflammatory responses were dampened by AAT. However, the downregulation of the inflammatory response genes in (C) was just under significance.
Tables of genes related to antigen presentation (Table 1), cytokine signaling (Table 2), interferon signaling (Table 3) and complement activation (Table 4). Inflammatory top gene (FC>2; p-value<0.05; left column), were defined by differential expression between untreated and IFNγ-treated cells (inflammation; middle column).
HMC3-MHCII^Luc and HMC3-MHCII^Luc; Ubi^AAT (endogenous AAT) cell lines were seeded into 96-well plates at a density of approximately 2500 cells/well. HMC3-MHCII^Luc cell line was plated and was added plasma-derived AAT and recombinant AATs (produced in CHO cells, AAT 1 and AAT 2) 3h later and at ranged concentration (1; 10 or 25 μM). 24h after, still in the presence of exogenous or endogenous AAT, microglial activation was induced with a 24h-long IFNγ presentation (10 ng/ml). IFNγ was then removed and both HMC3-MHCII^Luc and HMC3-MHCII^Luc; Ubi^AAT cells were cultured for 48h in exogenous or endogenous presence of AAT before cell cultures were beeing assessed for cell viability and activation (See FIGS. 3A, 3B, 3C and 4A,4B, 4C).
RNA samples from plasma-derived AAT and recombinant AAT Nr. 2 were checked for quality (2100 Bioanalyzer, Agilent) and libraries prepared with Truseq RNA Library Kit (Illumina, RS-122-2001). Libraries were sequenced (HiSeq 4000, Illumina) controlled for the quality of sequencing (FastQC), mapped on the human genome (STAR v.2.7.0f; UCSC hg38), reads were counted (HTSeq v0.9.1) and the differential expression analysis was performed with the R/Bioconductor package (edgeR 1.30.1.).

[1] = Inflammation + AAT, AD risk gene
[2] = Inflammation + AAT, MCT*/PN risk gene
[3] = Inflammation + AAT, MS risk gene
[4] = Inflammation + AAT, PD risk gene
[5] = Regulated in AAT (resting condition), antigen presentation
[6] = Regulated in AAT (resting condition), cytokine signalling
[7] = Regulated in AAT (resting condition), interferon signaling
[8] = head prints AAT (right block), GBS risk gene
[9] = inflammation + AAT, antigen presentation
[10] = inflammation + AAT, complement activation
[11] = inflammation + AAT, cytokine signalling
[12] = inflammation + AAT, interferon signaling

## alpha1-antitrypsin (AAT) protein
FC inflammation + AAT, M2 gene
  IGFBP2 expression FC: 1.34
  IL1R1 expression FC: 1.18
  ITGA11 expression FC: 1.54
  KANK2 expression FC: 1.25
  KDM2B expression FC: 1.17
  KIAA1549L expression FC: 1.44
  LDHA expression FC: 1.21
  LOXL2 expression FC: 1.25
  MBOAT7 expression FC: 1.37
  METRN expression FC: 1.64
  MIF expression FC: 1.72
  MMP1 expression FC: 2.39
  MXRA8 expression FC: 1.49
  OLFML2B expression FC: 1.44
  PAPPA expression FC: 1.31
  PLEC expression FC: 1.54
  PLLP expression FC: 1.46
  PREX1 expression FC: 1.28
  PRSS23 expression FC: 1.16
  PTPRS expression FC: 1.23
  RASAL1 expression FC: 1.45
  SEMA3B expression FC: 1.39
  SERPINH1 expression FC: 1.20
  SH3PXD2B expression FC: 1.19
  SLC16A3 expression FC: 1.65
  STC2 expression FC: 1.32
  TBCD expression FC: 1.26
  TCEAL2 expression FC: 1.30
  TGFB1I1 expression FC: 1.26
  TGFBI expression FC: 1.18
  THBS1 expression FC: 1.34
  TNFRSF1B expression FC: 1.23
  ZIC2 expression FC: 2.77
  ZNF319 expression FC: 1.25
[1]
  ABCA7 expression FC: 1.36
  APOE expression FC: 1.55
  BIN1 expression FC: 1.43
  PICALM expression FC: −1.29
  PSEN2 expression FC: 1.28
  TREM2 expression FC: 1.47
[2]
  CCT5 expression FC: −1.13
  DNAJB2* expression FC: 1.20
  DST expression FC: 1.30
  GARS* expression FC: −1.24
  GDAP1* expression FC: −1.24
  HSPB1* expression FC: 1.56
  IGHMBP2* expression FC: 1.21
  INF2 expression FC: 1.35
  KARS* expression FC: −1.13
  LMNA* expression FC: 1.39
  MED25* expression FC: 1.38
  NDRG1* expression FC: 1.30
  SCN9A expression FC: −1.66
  SEPT9 expression FC: 1.29
  TFG* expression FC: −1.19
  TUBB3 expression FC: 1.44
Inflammation + AAT, MCT*/PN risk gene, first TRPV4* line
  TRPV4* expression FC: 1.72
Inflammation + AAT, MCT*/PN risk gene, second TRPV4* line
  TRPV4* expression FC: 1.40
[3]
  AGAP2 expression FC: 1.45
  CYP24A1 expression FC: 1.34
  DKKL1 expression FC: 2.12
  HLA-A expression FC: 1.57
  HLA-DRB1 expression FC: 1.51
  MPHOSPH9 expression FC: −1.19
  NFKBIZ expression FC: −1.37
  SLC30A7 expression FC: −1.56
  ZMIZ1 expression FC: 1.47
[4]
  ATP13A2 expression FC: 1.49
  DNAJC6 expression FC: −1.12
  GBA expression FC: 1.15
  LRP10 expression FC: 1.23
  PINK1 expression FC: 1.20
  PLA2G6 expression FC: 1.37
  SYNJ1 expression FC: −1.23
  UCHL1 expression FC: −1.10
[5]
  NFATC1 expression FC: 1.44
  TRAF6 expression FC: −1.26
Regulated in AAT (resting condition), complement activation
  PLAU expression FC: −1.27
[6]
  BIRC2 expression FC: −1.53
  CEBPG expression FC: −1.31
  MYD88 expression FC: −1.35
  RASGRF2 expression FC: −1.45
  RIPK2 expression FC: −1.30
  SPTBN1 expression FC: −1.21
  STAT1 expression FC: −1.47
  TM7SF3 expression FC: −1.18
  TNFSF9 expression FC: 1.26
  TRAF6 expression FC: −1.26
[7]
  IRF2 expression FC: −1.17
  STAT1 expression FC: −1.47
[8]
  FOS expression FC AAT: −1.54
  GUK1 expression FC AAT: 1.31
  LY96 expression FC AAT: −2.31
  MARCKS expression FC AAT: −1.84
  NFIL3 expression FC AAT: −1.22
  ZNF12 expression FC AAT: −1.23
Human microglial cells, AAT treatment
  genes related to the unfolded protein response (UPR) pathway and cell-survival (GSEA): upregulation
[9]
  CALR expression FC: 1.35
  CTSA expression FC: 1.17
  CTSD expression FC: 1.47
  HLA-DOB expression FC: −4.49
  HLA-DPB1 expression FC: 1.31
  HLA-DRA expression FC: −2.22
  IL1B expression FC: −2.07
  MRC2 expression FC: 1.47
  NFATC2 expression FC: 1.63
  PSMB9 expression FC: −1.23
  PYCARD expression FC: 2.20
  SOCS3 expression FC: 1.20
  TAPBP expression FC: 1.23
[10]
  C3AR1 expression FC: −1.50
  ITGAX expression FC: 1.41
  PLAUR expression FC: 1.32
  SERPINB2 expression FC: −4.63
[11]
  ANXA1 expression FC: −1.33
  ATF3 expression FC: −1.26
  CX3CL1 expression FC: 1.61
  CXCL1 expression FC: −2.09
  CXCL5 expression FC: −2.15
  DUSP6 expression FC: −1.26
  FGF2 expression FC: −1.57
  FSCN1 expression FC: 1.48
  HBEGF expression FC: −1.30
  IL1B expression FC: −2.07
  IL1R1 expression FC: 1.18
  IL18 expression FC: −1.75
  IL27RA expression FC: 1.36
  IL411 expression FC: 1.95
  JAK3 expression FC: 1.43
  MAP2K2 expression FC: 1.51
  MAP2K3 expression FC: 1.37
  MAPK11 expression FC: 1.44
  MAPK12 expression FC: 1.33
  MAPK13 expression FC: 1.23
  NFKBIZ expression FC: −1.37
  PSMB9 expression FC: −1.23
  RASAL1 expression FC: 1.52
  SOCS3 expression FC: 1.20
  STAT5A expression FC: 1.45
  TNFRSF9 expression FC: −2.35
  TRAF2 expression FC: 1.42
[12]
  CD44 expression FC: 1.14
  FLNB expression FC: −1.20
  HLA-DPB1 expression FC: 1.31
  HLA-DRA expression FC: −2.22
  IFIT1 expression FC: −1.78
  IFNAR1 expression FC: −1.63
  IRF3 expression FC: 1.56
  MX1 expression FC: −2.00
  MX2 expression FC: −2.14
  SOCS3 expression FC: 1.20
  USP18 expression FC: −1.76
Top genes FC>2, p-value<0.05, significantly and oppositely regulated
  inflammatory top genes found affected by AAT treatment: ~35%
